Reference: PubChem BioAssay (NCI)
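In this assay, cells in 96-well plates receive the compound at five concentrations for 48 hours. Endpoints are linearly interpolated between the surrounding concentrations. GI50 marks 50% less growth. TGI: concentration producing complete growth inhibition.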

Key:
Test in all cases: NCI anticancer screen, dose series, 48 h
[1] = test system: SK-OV-3 ovarian
[2] = test system: U251 CNS
[3] = test system: SNB-75 CNS
[4] = test system: SK-MEL-5 melanoma
[5] = test system: K-562 leukemia
[6] = test system: SF-539 CNS
[7] = test system: SR leukemia
[8] = test system: HOP-92 NSCLC
[9] = test system: BT-549 breast
[10] = test system: MDA-MB-231 breast

Row | SMILES | TGI [1] [µM] | TGI [2] [µM] | TGI [3] [µM] | TGI [4] [µM] | TGI [5] [µM] | TGI [6] [µM] | TGI [7] [µM] | TGI [8] [µM] | GI50 [1] [µM] | GI50 [9] [µM] | TGI [9] [µM] | GI50 [2] [µM] | GI50 [10] [µM] | TGI [10] [µM] | GI50 [8] [µM] | GI50 [3] [µM] | GI50 [4] [µM] | GI50 [5] [µM] | GI50 [6] [µM] | GI50 [7] [µM]
1 | COC(=O)C1(C)CCc2c(OC)ccc(OC)c2C1=O (stereo not given) | > 100 | > 100 | > 100 | > 100 | > 100 | > 100 | > 100 | – | – | – | – | – | – | – | – | – | – | – | – | –
2 | Cc1ccc(-c2nnc(-c3nn(-c4ccccc4)c4nc5ccccc5nc34)o2)cc1 | 24.4 | 59.1 | 8.3 | 25.8 | 61.9 | 9.62 | > 100 | 20.9 | – | – | – | – | – | – | – | – | – | – | – | –
3 | O=C(NN1C(=O)CSC12CCCCC2)c1[nH]c2ccc(Br)cc2c1-c1ccccc1 | > 100 | 31.9 | 33.7 | > 100 | 56.6 | 39.9 | – | 42.3 | 46.3 | 20.1 | 44.4 | 15.8 | 20.4 | 42.3 | 20.7 | 15.9 | 31.2 | 13.4 | 21 | –
4 | CCOC(=O)C1C(=S)NC(=O)C1C#N (stereo not given) | > 100 | > 100 | > 100 | > 100 | > 100 | > 100 | – | > 100 | – | – | – | – | – | – | – | – | – | – | – | –
5 | CC(=O)Nc1ccc(SC#N)c2c(NC(C)=O)cccc12 | > 100 | > 100 | > 100 | > 100 | > 100 | > 100 | > 100 | > 94.8 | – | – | – | – | – | – | – | – | – | – | – | –
6 | O=C1CC(c2c[nH]c3ccccc23)C(=O)N1 (stereo not given) | > 100 | > 100 | > 100 | > 100 | > 100 | > 100 | – | – | – | – | – | – | – | – | – | – | – | – | – | –
7 | Clc1ccc(Nc2nc3ccccc3nc2-c2cccs2)cc1Cl | > 100 | – | > 100 | – | – | > 100 | > 100 | 78.8 | – | – | – | – | – | – | – | – | – | – | – | –
8 | C1CCC([PH+](C2CCCCC2)C2CCCCC2[PH+](C2CCCCC2)C2CCCCC2)CC1.[Au].[CH-]1CCCCC1CC1CCCC[N-]1 (stereo not given) | 1.36 | 1.59 | 0.971 | 0.813 | > 100 | 1.41 | – | 0.714 | 0.355 | 0.33 | 1.51 | 0.199 | 0.227 | 0.689 | 0.212 | 0.23 | 0.288 | 0.246 | 0.355 | –
9 | Cc1c(/C=N/N=C/c2[nH]c(C(=O)OC(C)(C)C)c(C)c2C)[nH]c(C(=O)OC(C)(C)C)c1C | > 100 | > 100 | 88.1 | > 100 | > 100 | > 100 | > 100 | > 100 | – | – | – | – | – | – | – | – | – | – | – | –
10 | FC(F)(F)c1ccc(-c2cnc(-c3ncon3)nc2NC2CCCCCC2)cc1 | > 100 | – | > 100 | > 100 | > 100 | > 100 | 56.8 | – | > 100 | 38.5 | > 100 | – | 22.5 | 89 | – | 50.5 | 40.7 | 34.8 | > 100 | 20.4
11 | N#CC1(C(N)=O)C(c2ccc(Cl)cc2)CC(=O)CC1c1ccc(Cl)cc1 (stereo not given) | 45 | 31.6 | – | 31.1 | > 100 | 34.5 | – | 32.1 | 20.3 | 14.6 | 27.7 | 16.6 | 13.8 | 28.9 | 16.4 | – | 17.4 | 31.4 | 18.4 | –
12 | COc1cc2c3c(n(C)c(=O)c2cc1OC)-c1cc2c(cc1/C3=C\CCCCN1C(=O)c3ccccc3C1=O)OCO2 | 45.7 | 25.8 | > 100 | 39.4 | > 100 | – | – | 7.49 | 13.5 | – | – | 10.6 | 13.3 | 38.3 | – | 28.5 | 13 | 23.4 | – | –
13 | CCCCCCCCCCCCCCCCCC[n+]1ccc2c(C)c3c(c(C)c2c1)c1cc(O)ccc1n3CC | 7.6 | – | 12 | 2.85 | 9.13 | 5.59 | – | 5.68 | 1.84 | 2.72 | 10.5 | – | 2.76 | 12.7 | 1.64 | 2.27 | 1.34 | 1.1 | 2.2 | –
14 | O=C1OC(Cc2ccccc2)(N2CCCC2=O)C1c1ccccc1 (stereo not given) | > 100 | > 100 | > 100 | > 100 | > 100 | – | > 100 | > 100 | – | – | – | – | – | – | – | – | – | – | – | –
15 | O=C(NC1CCCCC1)NS(=O)(=O)c1ccc2c(c1)CCC2 | > 100 | > 100 | > 100 | – | > 100 | > 100 | > 100 | > 100 | – | – | – | – | – | – | – | – | – | – | – | –
16 | Cc1[nH]c2ccccc2c1C(=O)CC1(O)C(=O)Nc2c(Cl)cc(Cl)cc21 (stereo not given) | > 100 | > 100 | > 100 | 31.5 | 58 | 61.7 | 54.8 | – | – | – | – | – | – | – | – | – | – | – | – | –
17 | Cc1ccc(/C=C/C(=O)C(C)(C)CN2CCCCC2)cc1 | 26.3 | 27.5 | 19.5 | 8.36 | 12 | 16.8 | – | – | – | – | – | – | – | – | – | – | – | – | – | –
18 | CC#CCC1CCC(OCC)=CC1=O (stereo not given) | > 100 | > 100 | > 100 | > 100 | > 100 | > 100 | > 100 | > 100 | – | – | – | – | – | – | – | – | – | – | – | –
19 | COc1cccc(OC(=O)c2ccc(C(F)(F)F)nc2Nc2cc(Cl)ccc2C)c1 | 80.7 | > 100 | > 100 | 12.5 | 9.36 | 32 | – | 6.98 | 11.1 | 7.63 | 41.7 | 8.13 | 2.76 | 15.7 | 1.63 | 9.04 | 2.63 | 3.13 | 8.75 | –
20 | CO/N=C(\COc1ccc2c(c1)[nH]c1ccccc12)c1ccc(F)cc1 | > 100 | > 100 | 89.6 | > 100 | – | > 100 | – | 55.2 | 28.7 | > 100 | > 100 | 25.4 | 20.1 | > 100 | 13.7 | 9.17 | > 100 | – | > 100 | –
